Results on one compound are retold here after patent US7662997B2, “Synthesis and applications of 2-oxo-4-methylthiobutyric acid, its salts and its derivatives” (Adisseo Ireland Limited, priority 2004, dated 2010).

For the series the following is noted: chicken; for Cl D7-D21 Delta (%) / Consumption D7-D21 Delta (%) / Weight gain D7-D21 Delta (%): relative to control R1. How it is done:
The starting product is a food base that is deficient in methionine, methionine being the nutritional element for which it is desired to observe a response, and the said nutritional element that is lacking is then introduced in the reference forms and in the test form, and then the performance levels obtained in each of the systems are compared, system R1 corresponding to no introduction of methionine.
Two chickens per cage are tested, with controlled randomization by chance.
Seven treatments were carried out:
R1: without added methionine,
R2 and R3: +Rhodimet™ NP99 (D,L-methionine powder sold by the applicant) at two different doses,
R4 and R5: +Rhodimet™ AT88, at two different doses
R6 and R7: +KMB, at two different doses.
They were each repeated 14 times and are represented in Table 3 below.
Zootechnical performance levels as a function of treatments (period 7-21 days)
The smaller the number of grams required to obtain one gram of weight gain, the greater the efficiency of the product, as illustrated in the FIGURE.
The ratio of KMB efficiency to DL-methionine efficiency is then calculated by calculating the ratio of the conversion efficiency values calculated at the two doses used.

Where [1] appears, read: addition of 0.1% of methionine, 7-21 days, versus control.
Where [2] appears, read: higher dose (NP99 0.200%, AT88 0.225%, KMB 0.204%).
Setting [3] is: higher dose (R3 NP99 0.200%, R5 AT88 0.225%, R7 KMB 0.204%).
Where [4] appears, read: lower dose (NP99 0.100%, AT88 0.113%, KMB 0.102%).
[5] abbreviates: lower dose (R2 NP99 0.100%, R4 AT88 0.113%, R6 KMB 0.102%).

Read-outs that look alike come from different tables or passages of the source.

Turning to `CSCCC(N)C(=O)O` (racemic) [Rhodimet™ NP99, D,L-methionine], under setting [1], the “decrease of the consumption index” value was −11% and the “increase of the weight gain” value came to 90 g. Also, under setting [2], the “Cl D7-D21 Delta (%)” value is listed as −9.2%, the “Consumption D7-D21 Delta (%)” value was found to be 5.5% and the “Weight gain D7-D21 Delta (%)” value is reported as 16.2%. Under setting [3], the “Consumption D7-D21 (g) Means” value turned out to be 823 g, the “Mortality D7-D21” value is listed as 0.0% and the “Weight gain D7-D21 (g) Means” value is 527 b g. Further, under setting [4], the “Cl D7-D21 Delta (%)” value is −11.1%, the “Consumption D7-D21 Delta (%)” value came to 6.7% and the “Weight gain D7-D21 Delta (%)” value was determined as 19.8%. In addition, under setting [5], the “Consumption D7-D21 (g) Means” value came out at 832 g, the “Mortality D7-D21” value was 0.0% and the “Weight gain D7-D21 (g) Means” value was 544 b g.
